Measurements published in the NIST ThermoML archive (doi:10.1021/je0502391).
Numbers after ± are expanded uncertainties.

Conditions: 298.15 K; 101.33 kPa; Liquid

| Structure (SMILES) | mass density [kg/m3] |
| --- | --- |
| C=C1CC[C@H]2C[C@@H]1C2(C)C [(1S,5S)-6,6-dimethyl-2-methylenebicyclo[3.1.1]heptane] | 866.84 ± 0.62 |
| CCCCCCCCCCCC [dodecane] | 745.41 ± 0.78 |
| CO [methanol] | 786.62 ± 0.31 |
| Cc1ccccc1 [toluene] | 862.35 ± 0.24 |

More lines, now with the values ahead:

| mass density [kg/m3] | Structure (SMILES) |
| --- | --- |
| 837.31 ± 1.3 | C=C(C)[C@H]1CC=C(C)CC1 [(R)-1-methyl-4-(1-methylethenyl)cyclohexene] |
| 853.88 ± 0.63 | CC1=CC[C@H]2C[C@@H]1C2(C)C [(S)-2-pinene] |
